According to ChEMBL document CHEMBL6114961, “Novel isoxazole thiophene-containing compounds active against Mycobacterium tuberculosis” (Bioorg Med Chem Lett, 2025):
Values after ≈ are worked out from the molar mass of the structure shown.

Assays:
[1] = system: Mycobacterium tuberculosis; assay: Antituberculosis activity against Mycobacterium tuberculosis H37Rv infected in human THP-1 cells assessed as reduction in bacterial growth pre-infected with bacteria for 24 hrs followed by compound addition and measured 3 days by luminescence based intramacrophage assay; type: functional, organism-based
HepG2 = assay: Cytotoxicity against human HepG2 cells measured after 3 days by Cell Titer-Glo Luminescent Cell Viability Assay; type: functional; conditions: HepG2, 72 h, time 3 day
Cytochrome P450 3A4 = Cytochrome P450 3A4 (Homo sapiens, UniProt P08684); assay: Inhibition of CYP3A4 (unknown origin); type: ADME
[2] = Oral bioavailability in male CD-1 mouse at 20 mg/kg; type: ADME, organism-based; conditions: in vivo
[3] = Plasma protein binding in mouse assessed as unbound fraction; type: ADME, cell-free
Cytochrome P450 1A2 = molecular target: T1, Cytochrome P450 1A2 (Homo sapiens, UniProt P05177); assay: Inhibition of CYP1A2 (unknown origin); type: ADME
T1 sequence (P05177 whole entry): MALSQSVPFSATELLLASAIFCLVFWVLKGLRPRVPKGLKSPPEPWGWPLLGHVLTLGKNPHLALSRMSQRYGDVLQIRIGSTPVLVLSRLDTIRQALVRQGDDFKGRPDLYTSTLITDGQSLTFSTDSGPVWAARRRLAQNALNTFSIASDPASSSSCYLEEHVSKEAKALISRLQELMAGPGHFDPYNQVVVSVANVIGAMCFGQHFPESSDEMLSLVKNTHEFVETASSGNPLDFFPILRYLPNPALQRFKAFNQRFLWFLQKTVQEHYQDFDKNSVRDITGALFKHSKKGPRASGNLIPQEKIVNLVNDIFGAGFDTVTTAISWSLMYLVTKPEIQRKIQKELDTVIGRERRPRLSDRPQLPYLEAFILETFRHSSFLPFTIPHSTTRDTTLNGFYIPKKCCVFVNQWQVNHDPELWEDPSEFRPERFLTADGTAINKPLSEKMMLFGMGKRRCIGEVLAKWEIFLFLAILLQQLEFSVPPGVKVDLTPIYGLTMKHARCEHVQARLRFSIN

[4] = Apparent permeability in human Caco-2 cells across apical to basolateral side; type: ADME, cell-based
[5] = system: Mycobacterium tuberculosis; assay: Bactericidal activity against non-replicating Mycobacterium tuberculosis Hu-Coates model assessed as reduction in CFU at 20 uM in presence of BPaL; type: functional
Cytochrome P450 2D6 = Cytochrome P450 2D6 (Homo sapiens, UniProt P10635); assay: Inhibition of CYP2D6 (unknown origin); type: ADME
[6] = Apparent permeability in human Caco-2 cells across basolateral side to apical side; type: ADME, cell-based
Cytochrome P450 2C19 = Cytochrome P450 2C19 (Homo sapiens, UniProt P33261); assay: Inhibition of CYP2C19 (unknown origin); type: ADME
[7] = AUC (0 tot 24 hrs) in male CD-1 mouse at 3 mg/kg, iv; type: ADME, organism-based; conditions: in vivo
[8] = AUC (0 tot 24 hrs) in male CD-1 mouse at 20 mg/kg, po; type: ADME, organism-based; conditions: in vivo
[9] = Tmax in male CD-1 mouse at 20 mg/kg, po; type: ADME, organism-based; conditions: in vivo
[10] = Metabolic stability in mouse liver microsomes assessed as intrinsic clearance; type: ADME, Microsome; conditions: read-out: CLH
[11] = MRT (0 tot 24 hrs) in male CD-1 mouse at 20 mg/kg, po; type: ADME, organism-based; conditions: in vivo
[12] = Half life in male CD-1 mouse at 20 mg/kg, po; type: ADME, organism-based; conditions: in vivo
Cytochrome P450 2C9 = Cytochrome P450 2C9 (Homo sapiens, UniProt P11712); assay: Inhibition of CYP2C9 (unknown origin); type: ADME
[13] = Cmax in male CD-1 mouse at 20 mg/kg, po; type: ADME, organism-based; conditions: in vivo
[14] = system: Mycobacterium tuberculosis; assay: Antituberculosis activity against Mycobacterium tuberculosis H37Rv assessed as reduction in bacterial growth measured after 7 days using 7H9 broth by Alamar blue staining based analysis; type: functional; conditions: 168 h, time 7 day
[15] = Plasma concentration in male CD-1 mouse at 20 mg/kg, po measured for 14 hrs; type: ADME, organism-based
[16] = system: Mycobacterium tuberculosis; assay: Bactericidal activity against non-replicating Mycobacterium tuberculosis Hu-Coates model assessed as reduction in CFU at 20 uM; type: functional
[17] = Selectivity index, ratio of CC50 for Cytotoxicity against human HepG2 cells to MIC for antituberculosis activity against Mycobacterium tuberculosis H37Rv assessed as reduction in bacterial growth; type: toxicity, cell-based, Hep G2; conditions: read-out: Selectivity Index
[18] = molecular target: Voltage-gated inwardly rectifying potassium channel KCNH2 (Homo sapiens, UniProt Q12809); assay: Inhibition of human ERG; type: toxicity
[19] = Plasma concentration in male CD-1 mouse at 20 mg/kg, po measured for 6 hrs; type: ADME, organism-based

Cytochrome P450 2D6, sequence (P10635 whole entry): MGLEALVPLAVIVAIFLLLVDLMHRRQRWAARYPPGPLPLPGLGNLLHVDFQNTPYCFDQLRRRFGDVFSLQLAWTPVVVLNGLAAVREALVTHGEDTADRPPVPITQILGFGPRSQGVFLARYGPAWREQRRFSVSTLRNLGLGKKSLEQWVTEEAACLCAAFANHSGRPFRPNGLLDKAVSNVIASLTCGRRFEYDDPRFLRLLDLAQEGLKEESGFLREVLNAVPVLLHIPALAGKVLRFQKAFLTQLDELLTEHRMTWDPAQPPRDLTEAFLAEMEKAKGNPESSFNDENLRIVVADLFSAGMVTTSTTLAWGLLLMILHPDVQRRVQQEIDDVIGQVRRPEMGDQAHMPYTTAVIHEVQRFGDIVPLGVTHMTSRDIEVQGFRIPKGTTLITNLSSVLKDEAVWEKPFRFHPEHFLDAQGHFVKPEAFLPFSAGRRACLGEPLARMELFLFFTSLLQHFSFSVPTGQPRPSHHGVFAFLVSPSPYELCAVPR
Cytochrome P450 3A4, sequence (P08684 whole entry): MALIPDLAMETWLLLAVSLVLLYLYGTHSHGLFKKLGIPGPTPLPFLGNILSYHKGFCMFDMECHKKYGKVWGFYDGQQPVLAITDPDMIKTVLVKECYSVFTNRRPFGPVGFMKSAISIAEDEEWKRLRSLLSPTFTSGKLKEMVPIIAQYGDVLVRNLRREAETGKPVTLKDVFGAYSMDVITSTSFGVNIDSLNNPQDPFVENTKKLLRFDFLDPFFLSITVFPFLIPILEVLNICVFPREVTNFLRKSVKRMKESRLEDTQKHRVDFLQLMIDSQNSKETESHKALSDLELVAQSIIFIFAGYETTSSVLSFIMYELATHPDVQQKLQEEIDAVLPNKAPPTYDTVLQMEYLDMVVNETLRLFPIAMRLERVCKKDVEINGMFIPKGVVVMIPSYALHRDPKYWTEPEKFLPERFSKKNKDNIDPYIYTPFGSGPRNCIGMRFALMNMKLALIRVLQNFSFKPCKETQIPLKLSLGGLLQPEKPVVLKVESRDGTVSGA
Cytochrome P450 2C9, sequence (P11712 whole entry): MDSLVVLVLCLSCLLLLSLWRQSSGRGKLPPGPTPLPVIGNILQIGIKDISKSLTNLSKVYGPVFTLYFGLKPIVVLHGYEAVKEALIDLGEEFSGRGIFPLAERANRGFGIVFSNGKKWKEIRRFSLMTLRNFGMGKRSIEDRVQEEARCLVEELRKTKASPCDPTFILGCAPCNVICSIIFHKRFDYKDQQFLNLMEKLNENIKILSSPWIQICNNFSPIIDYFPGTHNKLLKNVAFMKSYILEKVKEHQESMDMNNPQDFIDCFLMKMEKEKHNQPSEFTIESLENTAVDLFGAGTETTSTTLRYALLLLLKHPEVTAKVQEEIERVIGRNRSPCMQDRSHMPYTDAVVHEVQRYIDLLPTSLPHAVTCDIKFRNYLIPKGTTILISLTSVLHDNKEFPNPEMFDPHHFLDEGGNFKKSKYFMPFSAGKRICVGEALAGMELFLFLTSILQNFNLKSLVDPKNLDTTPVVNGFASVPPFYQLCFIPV
Cytochrome P450 2C19, sequence (P33261 whole entry): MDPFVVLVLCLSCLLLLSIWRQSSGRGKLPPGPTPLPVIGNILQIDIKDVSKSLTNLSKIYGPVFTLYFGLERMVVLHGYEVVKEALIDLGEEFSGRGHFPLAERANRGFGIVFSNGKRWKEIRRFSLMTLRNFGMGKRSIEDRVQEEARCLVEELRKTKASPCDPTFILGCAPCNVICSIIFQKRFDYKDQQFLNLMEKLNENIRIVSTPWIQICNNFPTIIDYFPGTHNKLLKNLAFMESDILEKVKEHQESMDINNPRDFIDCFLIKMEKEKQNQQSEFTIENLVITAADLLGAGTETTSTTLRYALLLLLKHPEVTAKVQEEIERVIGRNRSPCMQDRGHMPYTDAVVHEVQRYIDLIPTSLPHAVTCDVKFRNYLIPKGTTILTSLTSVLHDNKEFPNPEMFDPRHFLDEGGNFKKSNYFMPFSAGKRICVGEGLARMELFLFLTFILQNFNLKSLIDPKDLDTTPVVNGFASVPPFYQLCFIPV
Voltage-gated inwardly rectifying potassium channel KCNH2, sequence (Q12809 whole entry): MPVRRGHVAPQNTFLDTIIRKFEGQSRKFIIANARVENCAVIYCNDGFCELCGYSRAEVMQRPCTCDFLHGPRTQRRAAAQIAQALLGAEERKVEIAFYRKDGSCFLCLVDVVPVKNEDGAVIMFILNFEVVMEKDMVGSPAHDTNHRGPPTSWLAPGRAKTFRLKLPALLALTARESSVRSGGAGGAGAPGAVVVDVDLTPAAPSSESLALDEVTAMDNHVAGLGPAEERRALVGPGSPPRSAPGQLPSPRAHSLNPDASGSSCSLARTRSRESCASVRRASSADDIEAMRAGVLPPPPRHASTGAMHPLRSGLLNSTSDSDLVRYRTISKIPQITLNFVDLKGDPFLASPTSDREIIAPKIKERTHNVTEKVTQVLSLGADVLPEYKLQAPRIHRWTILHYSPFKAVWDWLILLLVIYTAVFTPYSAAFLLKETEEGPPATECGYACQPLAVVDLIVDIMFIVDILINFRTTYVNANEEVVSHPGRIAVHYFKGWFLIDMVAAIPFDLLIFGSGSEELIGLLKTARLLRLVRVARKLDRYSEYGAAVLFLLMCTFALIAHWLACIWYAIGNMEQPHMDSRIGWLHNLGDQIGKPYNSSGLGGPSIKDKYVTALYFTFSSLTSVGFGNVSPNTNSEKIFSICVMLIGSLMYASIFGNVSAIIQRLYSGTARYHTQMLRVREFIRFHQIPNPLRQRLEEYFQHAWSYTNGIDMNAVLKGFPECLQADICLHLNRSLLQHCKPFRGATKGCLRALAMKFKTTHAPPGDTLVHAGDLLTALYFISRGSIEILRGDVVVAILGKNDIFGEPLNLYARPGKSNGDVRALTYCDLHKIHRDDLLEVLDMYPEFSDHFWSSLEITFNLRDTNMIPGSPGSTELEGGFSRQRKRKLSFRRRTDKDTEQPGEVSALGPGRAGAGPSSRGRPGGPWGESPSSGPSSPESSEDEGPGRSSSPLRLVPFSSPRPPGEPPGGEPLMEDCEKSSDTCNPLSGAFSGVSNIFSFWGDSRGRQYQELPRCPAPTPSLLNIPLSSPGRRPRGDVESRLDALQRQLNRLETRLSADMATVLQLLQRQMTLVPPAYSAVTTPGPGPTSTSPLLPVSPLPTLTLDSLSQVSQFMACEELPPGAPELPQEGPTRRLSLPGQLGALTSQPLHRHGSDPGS

In the case of `O=S(=O)(Nc1cc(-c2ccsc2)no1)c1ccc2c(c1)CCC2`, the EC50 [1] is reported as 24.9 µM and the CC50 (HepG2) is reported as > 40 µM.
For `O=S(=O)(Nc1cc(-c2ccsc2)no1)c1cc(F)ccc1F`, the EC50 [1] was > 25 µM and the CC50 (HepG2) was > 40 µM.
For `O=S(=O)(Nc1cc(-c2ccoc2)no1)C1CCOCC1`, the EC50 [1] was > 25 µM and the CC50 (HepG2) was > 40 µM.
In the case of `O=S(=O)(Nc1cc(-c2ccsc2)no1)C1CCC(F)(F)CC1`, the EC50 [1] is reported as > 25 µM and the CC50 (HepG2) is reported as > 40 µM.
In the case of `O=S(=O)(Nc1cc(-c2ccsc2)no1)c1ccccc1Cl`, the EC50 [1] is reported as 14.8 µM and the CC50 (HepG2) is reported as > 40 µM.
In the case of `O=S(=O)(Nc1cc(-c2cscn2)no1)C1CCOCC1`, the EC50 [1] is reported as > 25 µM and the CC50 (HepG2) is reported as > 40 µM.
With `O=S(=O)(CC1CCOCC1)Nc1cc(-c2ccsc2)no1` the EC50 [1] was > 25 µM and the CC50 (HepG2) was > 40 µM.
For `O=S(=O)(Nc1cc(-c2ccsc2)no1)c1ccc(F)cc1F`, the EC50 [1] was 24.9 µM and the CC50 (HepG2) was > 40 µM.
With `O=S(=O)(Nc1cc(-c2ccsc2)no1)c1ccc2c(c1)CC2` the EC50 [1] was 3.65 µM and the CC50 (HepG2) was > 40 µM.
With `O=C(Nc1cc(-c2ccsc2)no1)c1ccccc1F` the EC50 [1] was 22.8 µM and the CC50 (HepG2) was > 40 µM.
For `O=S(=O)(Nc1cc(-c2ccsc2)no1)C1CCOC1` (stereo unspecified), the EC50 [1] was > 25 µM and the CC50 (HepG2) was > 40 µM.
For `O=S(=O)(Nc1cc(-c2ccsc2)no1)c1ccccc1F`, the IC50 (Cytochrome P450 3A4) was > 50 µM, the bioavailability [2] was 78% and the fraction unbound [3] was 0.996. For the same molecule, the IC50 (Cytochrome P450 1A2) was > 50 µM, the Papp A→B [4] was 3.6 ×10⁻⁶ cm/s and the Activity [5] was 3 log10CFU. For the same molecule, the IC50 (Cytochrome P450 2D6) was > 50 µM, the Papp B→A [6] was 27.3 ×10⁻⁶ cm/s and the IC50 (Cytochrome P450 2C19) was 28.2 µM. It also gave an AUC [7] of 50981 ng·min/mL, an AUC(0-t) at 24 h [8] of 4450 ng·h/mL and a Tmax [9] of 0.67 h. It also gave a microsomal CLint [10] of 5.6 µL/min/mg, an MRT last at 24 h [11] of 3.44 h and a half-life [12] of 1.83 h. The IC50 (Cytochrome P450 2C9) was 3.2 µM, the Cmax [13] was 64200 ng/mL and the MIC90 [14] was 1.24 µM (≈ 0.402 µg/mL). For the same molecule, the EC50 [1] was 2.93 µM, the concentration at 14 h [15] was 949 ng/mL and the CC50 (HepG2) was > 40 µM. The Activity [16] was 1.02 log10CFU, the selectivity ratio [17] was > 32 and the IC50 [18] was > 30 µM.
With `O=S(=O)(Nc1cc(-c2ccsc2)no1)c1cccnc1F` the EC50 [1] was > 25 µM and the CC50 (HepG2) was > 40 µM.
With `O=S(=O)(Nc1cc(-c2csc(C(F)(F)F)c2)no1)c1ccccc1F` the EC50 [1] was > 25 µM and the CC50 (HepG2) was > 40 µM.
In the case of `O=S(=O)(Nc1cc(-c2ccsc2)no1)C1CCCCC1`, the EC50 [1] is reported as 24.9 µM and the CC50 (HepG2) is reported as > 40 µM.
In the case of `O=S(=O)(Nc1cc(-c2ccsc2)no1)C1CCNCC1`, the EC50 [1] is reported as > 25 µM and the CC50 (HepG2) is reported as > 40 µM.
With `CC1(C)COCCC1S(=O)(=O)Nc1cc(-c2ccsc2)no1` (stereo unspecified) the EC50 [1] was > 25 µM and the CC50 (HepG2) was > 40 µM.
In the case of `O=S(=O)(Nc1cc(-c2cccnc2)no1)c1ccccc1F`, the EC50 [1] is reported as 24.8 µM and the CC50 (HepG2) is reported as > 40 µM.
With `O=S(=O)(Nc1cc(-c2csc(Cl)c2)no1)C1CCOCC1` the EC50 [1] was > 25 µM and the CC50 (HepG2) was > 40 µM.
In the case of `O=S(=O)(Nc1cc(-c2ccsc2)no1)c1cccc(F)c1`, the EC50 [1] is reported as 24.4 µM and the CC50 (HepG2) is reported as > 40 µM.
For `O=S(=O)(Nc1cc(-c2ccsn2)no1)C1CCOCC1`, the EC50 [1] was > 25 µM and the CC50 (HepG2) was > 25 µM.
With `Cc1cc(-c2cc(NS(=O)(=O)c3ccccc3F)on2)c(C)s1` the EC50 [1] was 24.8 µM and the CC50 (HepG2) was > 40 µM.
For `O=S(=O)(Nc1noc(-c2ccsc2)n1)C1CCOCC1`, the EC50 [1] was > 25 µM.
For `O=S(=O)(Nc1cc(-c2ccsc2)no1)c1c(F)cc(F)cc1F`, the EC50 [1] was > 25 µM and the CC50 (HepG2) was > 40 µM.
For `O=S(=O)(Nc1cc(-c2ccsc2)no1)c1cccc(F)c1F`, the EC50 [1] was > 25 µM and the CC50 (HepG2) was > 40 µM.
`O=S(=O)(Nc1cc(-c2ccsc2)no1)C1CCOCC1` gave a bioavailability [2] of 58%, a fraction unbound [3] of 0.845 and an AUC [7] of 11076 ng·min/mL. It also gave a concentration at 6 h [19] of 613 ng/mL, an AUC(0-t) at 24 h [8] of 713 ng·h/mL and a Tmax [9] of 0.67 h. It also gave a microsomal CLint [10] of 0.2 µL/min/mg, an MRT last at 24 h [11] of 1.7 h and a half-life [12] of 2.19 h. The Cmax [13] was 24200 ng/mL, the EC50 [1] was 1.96 µM and the CC50 (HepG2) was > 40 µM.
In the case of `CN(c1cc(-c2ccsc2)no1)S(=O)(=O)c1ccccc1F`, the EC50 [1] is reported as 12.6 µM and the CC50 (HepG2) is reported as > 40 µM.
With `O=S(=O)(Nc1cc(-c2cccs2)no1)C1CCOCC1` the EC50 [1] was > 25 µM and the CC50 (HepG2) was > 40 µM.
For `O=S(=O)(Nc1cc(-c2ccsc2)no1)c1ccccc1`, the EC50 [1] was > 25 µM and the CC50 (HepG2) was > 40 µM.
With `O=S(=O)(Nc1cc(-c2ccsc2)no1)c1c(F)cccc1F` the EC50 [1] was 13.9 µM and the CC50 (HepG2) was > 40 µM.
